What was measured:
plasma proteins = experiment: Plasma protein binding; format: in vitro ADME; conditions: plasma proteins from all species
GIP receptor = biological target: T1, GIP receptor (Homo sapiens, UniProt P48546); experiment: Preclinical agonistic effect on GIP receptor; conditions: greater activity compared to Tirzepatide; preclinical studies
T1 sequence (P48546 22-466): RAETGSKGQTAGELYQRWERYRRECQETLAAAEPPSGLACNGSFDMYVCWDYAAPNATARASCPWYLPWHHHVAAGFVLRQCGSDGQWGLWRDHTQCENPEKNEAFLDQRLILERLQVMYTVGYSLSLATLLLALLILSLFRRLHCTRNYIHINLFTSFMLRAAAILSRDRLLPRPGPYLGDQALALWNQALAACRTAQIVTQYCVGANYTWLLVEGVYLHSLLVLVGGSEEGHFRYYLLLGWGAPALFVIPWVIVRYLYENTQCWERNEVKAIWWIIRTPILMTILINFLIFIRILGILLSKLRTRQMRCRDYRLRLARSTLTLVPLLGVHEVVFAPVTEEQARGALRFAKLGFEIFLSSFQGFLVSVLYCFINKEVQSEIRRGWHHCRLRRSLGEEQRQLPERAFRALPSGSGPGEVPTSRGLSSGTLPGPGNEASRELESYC

[1] = Pre-clinical pharmacokinetics in cynomolgus monkeys; conditions: cynomolgus monkey, in vivo
[2] = Solubility of the compound of formula I in compositions with sodium chloride or propylene glycol; format: physicochemical; conditions: disodium hydrogen phosphate dodecahydrate, pH 7, water for injection
Excerpt: It is worth mentioning that in polypeptide-based preparations, sodium chloride is believed to play a role in maintaining electrolyte balance and stabilizing polypeptide structures, and it is present as a stabilizer in a variety of existing polypeptide-based preparations.

GLP-1 receptor = GLP-1 receptor (Homo sapiens, UniProt P43220); experiment: Preclinical agonistic effect on GLP-1 receptor; conditions: greater activity compared to Tirzepatide; preclinical studies
GLP-1 receptor, sequence (P43220 24-463, species assumed): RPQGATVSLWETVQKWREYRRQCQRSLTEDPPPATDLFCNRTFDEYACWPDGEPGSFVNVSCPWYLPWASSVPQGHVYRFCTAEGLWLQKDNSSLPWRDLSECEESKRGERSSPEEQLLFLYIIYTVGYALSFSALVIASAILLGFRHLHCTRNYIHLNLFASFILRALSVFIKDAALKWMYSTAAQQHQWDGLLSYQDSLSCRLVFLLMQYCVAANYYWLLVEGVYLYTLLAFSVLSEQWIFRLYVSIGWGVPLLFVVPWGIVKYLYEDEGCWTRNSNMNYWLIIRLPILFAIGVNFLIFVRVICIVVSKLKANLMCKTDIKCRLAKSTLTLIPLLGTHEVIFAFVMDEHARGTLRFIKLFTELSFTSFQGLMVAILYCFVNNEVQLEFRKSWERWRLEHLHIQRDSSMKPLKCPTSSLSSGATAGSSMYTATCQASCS

[3] = Pre-clinical pharmacokinetics in rats; conditions: rat, in vivo

binding rates to plasma proteins (plasma proteins): over 99.4%
agonistic activity on GIP receptor compared to Tirzepatide (GIP receptor): 2- to 3 fold
half-life [1]: ~40 h
solubility ([2]; pH 7, propylene glycol as stabilizer (14 mg in 1 mL)): ≥ 30000 µg/mL
solubility ([2]; sodium chloride instead of propylene glycol (16.4 mg in 2 mL)): 150 µg/mL
agonistic activity on GLP-1 receptor compared to Tirzepatide (GLP-1 receptor): 2- to 3 fold
half-life [3]: ~14 h
SMILES: NC(=O)C(CCCCNC(=O)COCCOCCOCCNC(=O)COCCOCCOCCNC(=O)CCC(NC(=O)CC(=O)O)C(=O)O)NN[C@H](C=O)CO (stereo partly shown) [Compound of formula I]
